From patent publication US20070087364A1, “In vitro erythroid micronucleus assay for genotoxicity” (Massachusetts Institute of Technology, priority 2005, published 2007)
Entries after “also recorded” stand apart in the source; their conditions may differ.

Legend:
bone marrow = conditions: dose concentrations up to 20 μM, in vitro dosing (Glassner 1999); cited from earlier work
[1] = bolus injection of 25 mg/kg, cited from earlier work
MGMT^−/− Lin^− BM = assay: in vitro erythroid micronucleus assay, MGMT−/− Lin− bone marrow; conditions: introduced 10 h, 23 h or 30 h after seeding, harvest 72 h
[2] = system: Lin^− fraction of C57BL/6J (mouse) BM; assay: in vitro erythroid micronucleus assay, erythropoietic culture of wild-type Lin− bone marrow
[3] = system: bone marrow PCEs (reticulocytes); conditions: mouse; cited from earlier work

SMILES	cell survival as measured by colony assay (bone marrow) [%]	peak plasma concentration ([1]; after 1 minute (Meulemans 1989)) [mM]	plasma level ([1]; within the next 15 minutes (Meulemans 1989))	MN frequency, MGMT−/− vs wild-type cultures (MGMT^−/− Lin^− BM; 10 μM and 20 μM doses)	cell survival (growth inhibition), MGMT−/− vs wild-type cultures (MGMT^−/− Lin^− BM)	MN frequency in the PCE population (MN-PCE frequency) ([2]; 20 μM introduced 7 hours after seeding, harvest after 72 hours, vs vehicle control)	cell killing and MN formation ([2]; MGMT+/+ BM cultures treated 4 h after culture initiation (data not shown))	result in the in vivo MN assay [3]
O=NN(CCCl)C(=O)NCCCl [BCNU, 1,3-bis (2-chloroethyl) -1-nitrosourea]	~100	~0.4	approximately 40 μM	significant increases in MN frequency; also recorded: more sensitive to growth-inhibition and MN-formation	decreased cell survival	provides a clear signal of genotoxicity; also recorded: significantly different than those exposed to vehicle control alone; also recorded: an increase in the frequency of MN-PCEs	cell-killing dominated and very little MN formation was observed	–
COS(C)(=O)=O [MMS, methylmethane sulfonate]	–	–	–	–	–	–	–	test positive
